Measurements from patent publication EP0490581B1, “Cosmetic composition” (UNILEVER PLC, priority 1990, dated 1992).

System: isolated human hair follicles
Experiment: in vitro hair follicle growth test (elongation of isolated hair follicles in culture medium)
Assay type: cell-based
Protocol: The effect of compounds on hair growth was assessed using an in vitro test which measures the elongation of isolated human hair follicles in a culture medium.
This test includes the important step of isolating hair follicles having an undamaged hair bulb from skin, preferably from human skin, by microdissection.
The critical step of separating the hair follicle with intact undamaged hair bulb from the subcutaneous fatty tissue in which it is situated accordingly involves severing the hair shaft of the follicle at a point below the epidermis of skin surface, so as to leave the hair bulb intact and undamaged while still bearing a portion of the hair shaft.
Preferably, the hair shaft of the follicle is severed at the dermal-subcutaneous fat interface.
Any suitable cutting instrument can be employed to sever the hair shaft in this manner, but a keratotome or a scalpel are preferred.
The hair bulb with a hair shaft stump attached is then isolated from the skin by mechanically separating the hair from loosely adhering subcutaneous fat which normally surrounds the hair bulb. This is achieved after the dermis or upper layer of the skin has been separated and removed, to avoid damaging the hair bulb as it is pulled away.
The hair bulb together with hair shaft stump attached, is then transferred in an otherwise undamaged and fully functioning, viable state to a nutrient medium.
The hair follicles isolated by the technique described herein are transferred to a suitable culture medium for subsequent testing of substances that can then influence their future development.
The procedure now to be described represents a preferred method of culture and testing of hair growth.
In accordance with the preferred method of culture, isolated hair follicles are maintained in 500µl of Williams E medium, either with or without a test hair growth substance, at 37°C in an atmosphere of 5% CO₂ + 95% air in individual wells of a 24 multiwell dish (Corning), which permits detailed measurements to be made of the length of individual hair follicles.
Williams E medium is available from FLOW Laboratory under Catalogue No. 12-502. The formula of Williams E medium is described by Williams GM, et al., in Experimental Cell Research 69 (1971) on page 106.
Hair shaft length measurements can be made on these follicles, using a Nikon Diaphot inverted binocular or similar microscope with eye piece measuring graticules, […], during which time the follicles will signficiantly increase in length in response to a hair growth stimulant.
The response of an isolated hair follicle to a test substance, can accordingly be assessed by mesuring the increase in length, if any, in the presence of a test substance against a control. […]

**Q.** Which activity at 2000 µM (144 h, 2mM in Williams E medium supplemented with glucose (50mM), relative to a control value of 1.0, mean of 5 follicles from each of 5 human subjects (25 follicles), read-out: Hair follicle growth after 6 days) does the source give for `NC(=O)CC[C@H](N)C(=O)O` [Glutamine, glutamine] here?
**A.** 400%

**Q.** What about the “hair growth, as compared with the control” value (summary in words of the table's results, Williams E medium supplemented with glucose (50mM)) of the same compound?
**A.** most effective

**Q.** With `CCCCCCCCCCCCCCCC(=O)O` [Na palmitate] as the compound, how does the activity at 500 µM (144 h, 0.5mM in Williams E medium supplemented with glucose (50mM), relative to a control value of 1.0, mean of 5 follicles from each of 5 human subjects (25 follicles), read-out: Hair follicle growth after 6 days) read?
**A.** 180%

**Q.** For `CC(O)CC(=O)O` (stereo not shown) [Na 3-hydroxybutyrate], which activity at 1000 µM (144 h, 1 mM in Williams E medium supplemented with glucose (50mM), relative to a control value of 1.0, mean of 5 follicles from each of 5 human subjects (25 follicles), read-out: Hair follicle growth after 6 days) is on record?
**A.** 280%
